According to ChEMBL document CHEMBL5712922, “Synergistic effects of type I PRMT and PARP inhibitors against non-small cell lung cancer cells” (Clin Epigenetics, 2021):
Counter-ions that a name gives are not always drawn.

Tested on: A549
Assay: Antiproliferative against human A549 cells assessed as viable cells pretreated with MS023 for 24 hrs followed by compound addition at 10 uM measured after for 24 hrs relative to control
Details: A549, 24 h, read-out: Activity

Row | Structure (SMILES) | viability at 10 µM [%]
1 | O=c1ncccn1[C@@H]1O[C@H](CO)[C@@H](O)[C@H]1O [ZEBULARINE] | 54.2
2 | NC(=O)c1cccc(N)c1 [3-AMINOBENZAMIDE] | 54.2
3 | N[C@@H]1CCCN(c2c(/C=C3\SC(=O)NC3=O)cccc2-c2ccccc2)C1 | 54.2
4 | O=C(c1cncc(Br)c1)N1CCC(N2CCCC2)CC1 | 54.2
5 | CC(C)N(CCCNC(=O)Nc1ccc(C(C)(C)C)cc1)C[C@H]1O[C@@H](n2cc(Br)c3c(N)ncnc32)[C@H](O)[C@@H]1O | 54.2
6 | CN(C)CCCNC(=O)c1ccc(-c2cc(O)c3ncccc3c2)cc1 | 54.2
7 | CCN(CC)CCNC(=O)c1ccc(N)cc1 [PROCAINAMIDE HYDROCHLORIDE] | 54.2
8 | C[C@@H]1CCN(C(=O)CC#N)C[C@@H]1N(C)c1ncnc2[nH]ccc12 [TOFACITINIB] | 54.2
9 | CN(C)Cc1ccc(-c2nc3cccc4c3n2CCNC4=O)cc1 | 54.2
10 | O=C(O)CCCc1ccccc1 [SODIUM PHENYLBUTYRATE] | 54.2
11 | Nc1cc(F)ccc1NC(=O)/C=C/c1cnn(C/C=C/c2ccccc2)c1 | 54.2
12 | Cn1cc(-c2ccc(S(=O)(=O)n3ccc(/C=C/C(=O)Nc4ccccc4N)c3)cc2)cn1 [DOMATINOSTAT] | 54.2
13 | Cc1cc(Nc2nc(N[C@@H](C)c3ccc(F)cc3)c(C#N)cc2F)n[nH]1 | 54.2
14 | N[C@H]1C[C@@H]1c1ccc(-c2cccc(O)c2)cc1 | 54.2
15 | Nc1nc(OCc2cc(Br)cs2)c2[nH]cnc2n1 [LOMEGUATRIB] | 54.2
16 | CC1COc2c(N3CCN(C)CC3)c(F)cc3c(=O)c(C(=O)O)cn1c23 (stereo unspecified) [OFLOXACIN] | 54.2
17 | NC1=NC(=O)/C(=C\c2ccc(O)cc2)S1 | 54.2
18 | CC(C)N(C[C@H]1O[C@@H](n2cnc3c(N)ncnc32)[C@H](O)[C@@H]1O)[C@H]1C[C@@H](CCc2nc3cc(C(C)(C)C)ccc3[nH]2)C1 [PINOMETOSTAT] | 54.2
19 | Cn1cc(CNCC2CCN(c3ncc(C(=O)NO)cn3)CC2)c2ccccc21 [QUISINOSTAT HYDROCHLORIDE] | 54.2
20 | O=C(/C=C/N1C[C@H]2C[C@@H]1CN2c1ccccn1)c1ccccc1O | 54.2
21 | CN(C)Cc1ccc(S(=O)(=O)n2ccc(/C=C/C(=O)NO)c2)cc1 [RESMINOSTAT] | 54.2
22 | O=C(Nc1ccccc1-c1cn2c(CN3CCNCC3)csc2n1)c1cnc2ccccc2n1 | 54.2

Row | Structure (SMILES) | viability at 10 µM [%]
23 | COc1ccc(CCc2nc3cc(-c4c(C)noc4C)ccc3n2C[C@H](C)N2CCOCC2)cc1Cl | 54.2
24 | O=C(NC[C@H](O)CN1CCc2ccccc2C1)c1ccnc(NC2CCC2)c1 | 54.2
25 | CCn1c2ccccc2c2cc(CNCc3ccccc3OC)ccc21 | 54.2
26 | CCOC(=O)Nc1cc(-c2ccc(C)c(NS(C)(=O)=O)c2)nn2c(C)nnc12 | 54.2
27 | Cc1sc2c(c1C)C(c1ccc(Cl)cc1)=N[C@@H](CC(=O)Nc1ccc(O)cc1)c1nnc(C)n1-2 [BIRABRESIB] | 54.2
28 | CCCCCCCCCCCCCCCc1cccc(O)c1C(=O)O [ANACARDIC ACID] | 54.2
29 | O=C(/C=C/c1cccc(S(=O)(=O)Nc2ccccc2)c1)NO [BELINOSTAT] | 54.2
30 | O=C(Nc1c[nH]nc1-c1nc2ccc(CN3CCOCC3)cc2[nH]1)NC1CC1 [AT-9283] | 54.2
31 | CC(/C=C/C(=O)NO)=C\[C@@H](C)C(=O)c1ccc(N(C)C)cc1 [TRICHOSTATIN] | 54.2
32 | CCn1cc(-c2cccc(C(F)(F)F)c2)c2sc(C(=N)NC3CCS(=O)(=O)CC3)cc2c1=O | 54.2
33 | CCCCN(Cc1ccc(C(=O)NO)cc1)C(=O)Nc1ccccc1 [NEXTURASTAT A] | 54.2
34 | CO[C@@H](C(=O)N1Cc2[nH]nc(NC(=O)c3ccc(N4CCN(C)CC4)cc3)c2C1)c1ccccc1 [DANUSERTIB] | 54.2
35 | CN(C)c1ccc(C(=O)NCCCCCCC(=O)NO)cc1 | 54.2
36 | O=C(c1ccc(C(=O)N2CCC(N3CCCC3)CC2)c(Nc2ccccc2)c1)N1CCC(N2CCCC2)CC1 | 54.2
37 | O=C(NC[C@H](O)CN1CCc2ccccc2C1)c1cc(NC2COC2)ncn1 | 54.2
38 | O=C(Nc1nc2cccc(-c3ccc(CN4CCS(=O)(=O)CC4)cc3)n2n1)C1CC1 [FILGOTINIB] | 54.2
39 | CCn1cc(-c2ccnc3[nH]c(-c4cccc(CN(C)C)c4)cc23)c(-c2ccc(NC(=O)N(C)C)cc2)n1 [GSK-1070916] | 54.2
40 | CC(NC(=O)c1ccccc1/N=C/c1c(O)ccc2ccccc12)c1ccccc1 (stereo unspecified) [SIRTINOL] | 54.2
41 | Nc1nc(Nc2ccc(S(N)(=O)=O)cc2)nn1C(=O)c1c(F)cccc1F [JNJ-7706621] | 54.2
42 | O=C(O)[C@H](Cc1c[nH]c2ccccc12)N1C(=O)c2ccccc2C1=O | 54.2
43 | COc1ccccc1S(=O)(=O)Nc1ccc2c(c1)CN(C)C(=O)N2 | 54.2
44 | COC(=O)c1ccc2c(c1)nc(NC(=O)c1ccccc1)n2CCCc1ccccc1 | 54.2

Row | Structure (SMILES) | viability at 10 µM [%]
45 | Clc1ccc(N/N=C(\c2ccccc2)c2ccccn2)nc1 | 54.2
46 | COc1cc2c(Nc3ccc(NC(=O)c4ccccc4)cc3)ncnc2cc1OCCCN1CCOCC1 | 54.2
47 | COc1cc(OC)c2c(=O)[nH]c(-c3cc(C)c(OCCO)c(C)c3)nc2c1 [APABETALONE] | 54.2
48 | Nc1ccn([C@@H]2O[C@H](CO)[C@@H](O)C2(F)F)c(=O)n1 [GEMCITABINE] | 54.2
49 | CCS(=O)(=O)N1CC(CC#N)(n2cc(-c3ncnc4[nH]ccc34)cn2)C1 [BARICITINIB] | 54.2
50 | C[C@H](NC(=O)CCc1nc2ccccc2c(=O)[nH]1)c1ccccc1 | 54.2
51 | O=C(Nc1ccc(-c2ccnc(Nc3ccc(N4CCOCC4)cc3)n2)cc1)[C@@H]1CCCN1 | 54.2
52 | COc1cc(-c2cn(C)c(=O)c3cnccc23)cc(OC)c1CN(C)C | 54.2
53 | C[C@H](NC(=O)/C(C#N)=C/c1cccc(Br)n1)c1ccccc1 [WP 1066] | 54.2
54 | CCS(=O)(=O)Nc1ccc2c(c1)/C(=C(/Nc1ccc(CN3CCCCC3)cc1)c1ccccc1)C(=O)N2 [HESPERADIN] | 54.2
55 | CN1CCCN(C(=O)c2cccc(-c3ccc(/C=C4/C(=O)Nc5ccc(Cl)cc54)o3)c2)CC1 | 54.2
56 | CCOC(=O)CCNc1cc(N2CCc3ccccc3CC2)nc(-c2ccccn2)n1 | 54.2
57 | CCCC(CCC)C(=O)O [VALPROIC ACID] | 54.2
58 | CN(C)Cc1c(C(=O)NCCOc2ccc(C(=O)NO)cc2)oc2ccccc12 [ABEXINOSTAT] | 54.2
59 | Cc1cnc(Nc2ccc(OCCN3CCCC3)cc2)nc1Nc1cccc(S(=O)(=O)NC(C)(C)C)c1 [FEDRATINIB] | 54.2
60 | O=C(Nc1cccc(Cl)c1)Nc1ncc(CCNc2ncnc3ccsc23)s1 [SNS-314 MESYLATE] | 54.2
61 | O=C(CCCCCN1C(=O)c2cccc3cccc(c23)C1=O)NO | 54.2
62 | CCN(CC)C(=O)/C(C#N)=C/c1cc(O)c(O)c([N+](=O)[O-])c1 [ENTACAPONE] | 54.2
63 | C1=N/C2=N/c3ccc(OCCN4CCCC4)c(c3)COC/C=C/COCc3cccc(c3)C(=C1)N2 [PACRITINIB] | 54.2
64 | Cc1cnc(Nc2ccc(N3CCN(C)CC3)cc2)nc1Nc1cccc(S(=O)(=O)NC(C)(C)C)c1 | 54.2
65 | COc1cc2nc(N3CCCN(C)CC3)nc(NC3CCN(Cc4ccccc4)CC3)c2cc1OC | 54.2
66 | Nc1ccccc1NC(=O)c1ccc(CNc2nccc(-c3cccnc3)n2)cc1 [MOCETINOSTAT] | 54.2

Row | Structure (SMILES) | viability at 10 µM [%]
67 | COc1ccc(-c2nc(N3CCOCC3)c3sc(CN(C)c4ncc(C(=O)NO)cn4)cc3n2)cn1 [FIMEPINOSTAT] | 54.2
68 | O=C(O)c1ccc(Nc2ncc3c(n2)-c2ccc(Cl)cc2C(c2c(F)cccc2F)=NC3)cc1 [MLN-8054] | 54.2
69 | CC(C)N(CCC(=O)c1ccc2ccccc2c1)Cc1ccccc1 | 54.2
70 | N#Cc1ccc(-c2csc(NN=C3CCCC3)n2)cc1 | 54.2
71 | CC(=O)N1c2ccc(-c3ccc(C(=O)O)cc3)cc2[C@H](Nc2ccc(Cl)cc2)C[C@@H]1C | 54.2
72 | CCCCc1nc2cc(/C=C/C(=O)NO)ccc2n1CCN(CC)CC [PRACINOSTAT] | 54.2
73 | Cc1cc(/N=N/c2ccc(S(=O)(=O)Nc3ccccn3)cc2)c(N)cc1O | 54.2
74 | CNS(=O)(=O)C[C@H]1CC[C@H](N(C)c2[nH]cnc3nccc2-3)CC1 [OCLACITINIB] | 54.2
75 | CCC(CC)n1ccc2c(C(=O)NCc3c(C)cc(C)[nH]c3=O)cc(C#N)cc21 | 54.2
76 | CCCOc1ccn2c(C(C)=O)cc(-c3ccccc3S(C)(=O)=O)c2c1 | 54.2
77 | COc1ccc(Cn2ccc3ccc(C(=O)NO)cc32)cc1 | 54.2
78 | N#CC[C@@H](C1CCCC1)n1cc(-c2ncnc3[nH]ccc23)cn1 | 54.2
79 | CCN1CCN(C(=O)Cc2ccc(Nc3ncc(F)c(Nc4ccc(C(=O)Nc5ccccc5Cl)cc4)n3)cc2)CC1 | 54.2
80 | Cc1cc(Nc2cc(N3CCN(C)CC3)nc(/C=C/c3ccccc3)n2)n[nH]1 [ENMD-2076] | 54.2
81 | CC(=O)Nc1ccc(C(=O)Nc2ccccc2N)cc1 [TACEDINALINE] | 54.2
82 | CCN(CCO)CCCOc1ccc2c(Nc3cc(CC(=O)Nc4cccc(F)c4)[nH]n3)ncnc2c1 [DEFOSBARASERTIB] | 54.2
83 | Nc1ncn([C@H]2C[C@H](O)[C@@H](CO)O2)c(=O)n1 [DECITABINE] | 54.2
84 | CN1CCc2c(c3ccccc3n2Cc2ccc(C(=O)NO)cc2)C1 | 54.2
85 | CCCCCCCCCC(=O)N[C@@H](Cc1c[nH]c2ccccc12)C(=O)N[C@H](CC(N)=O)C(=O)N[C@@H](CC(=O)O)C(=O)N[C@@H]1C(=O)NCC(=O)N[C@@H](CCCN)C(=O)N[C@@H](CC(=O)O)C(=O)N[C@H](C)C(=O)N[C@@H](CC(=O)O)C(=O)NCC(=O)N[C@H](CO)C(=O)N[C@@H]([C@H](C)CC(=O)O)C(=O)N[C@@H](CC(=O)c2ccccc2N)C(=O)O[C@@H]1C | 54.2
86 | Nc1ccn([C@@H]2O[C@H](CO)[C@@H](O)[C@@H]2O)c(=O)n1 [CYTARABINE] | 54.2
